Measured values as given in patent US7943660B2, “Inhibitors of the LFA-1/ICAM-1 interaction and uses thereof” (Dominion Pharmakine S.L., priority 2005, dated 2011).

| melting point [°C] | Compound |
| --- | --- |
| 79 to 80 | CC[C@H](C)C(OCc1ccccc1)[C@H]1[C@H]([N+](=O)[O-])[C@@H](c2cccs2)N[C@@H]1C(=O)NCCC(=O)O (stereo partly drawn) [Compound 7, 3-[(2S,3R,4S,5S)-3-[(2S)-1-(Benzyloxy)-2-methylbutyl]-4-nitro-5-(thiophen-2-yl)pyrrolidine-2-carboxamido]propanoic acid] |
| 115.9 to 116.2 | CC[C@H](C)C(OCc1ccccc1)[C@@H]1[C@H]([N+](=O)[O-])[C@H](c2ccccc2)N(C(=O)CN)[C@]1(C)C(=O)NCCC(=O)O (stereo partly drawn) [Compound 16, 3-[(2S,3R,4S,5S)-1-(2-Aminoacetyl)-3-[(2S)-1-(benzyloxy)-2-methylbutyl]-2-methyl-4-nitro-5-phenylpyrrolidine-2-carboxamido]propanoic acid] |
| 94 to 96 | CC[C@H](C)C(OCc1ccccc1F)[C@H]1[C@H]([N+](=O)[O-])[C@@H](c2cccs2)N[C@@H]1C(=O)NCCC(=O)O (stereo partly drawn) [Compound 6, 3-[(2S,3R,4S,5S)-3-[(2S)-1-(2-Fluorobenzyloxy)-2-methylbutyl]-4-nitro-5-(thiophen-2-yl)pyrrolidine-2-carboxamido]propanoic acid] |
| 70 to 72 | CC(C)C(OCc1ccccc1)[C@H]1[C@H]([N+](=O)[O-])[C@@H](c2ccco2)N[C@@H]1C(=O)NCCC(=O)O (stereo partly drawn) [Compound 9, 3-[(2S,3R,4S,5S)-3-(1-(Benzyloxy)-2-methylpropyl)-5-(furan-2-yl)-4-nitropyrrolidine-2-carboxamido]propanoic acid] |
| 113 to 114 | CC[C@H](C)C(OCc1ccccc1F)[C@H]1[C@H]([N+](=O)[O-])[C@H](c2ccsc2)N[C@@H]1C(=O)NCCC(=O)O (stereo partly drawn) [Compound 4, 3-[(2S,3R,4S,5S)-3-[(2S)-1-(2-Fluorobenzyloxy)-2-methylbutyl]-4-nitro-5-(thiophen-3-yl)pyrrolidine-2-carboxamido]propanoic acid] |
| 132.7 to 133.6 | CC[C@H](C)C(OCc1ccccc1)[C@@H]1[C@H]([N+](=O)[O-])[C@H](c2ccccc2)N(C(=O)CN)[C@]1(C)C(=O)NCCCC(=O)O (stereo partly drawn) [Compound 17, 4-[(2S,3R,4S,5S)-1-(2-aminoacetyl)-3-[(2S)-1-(benzyloxy)-2-methylbutyl]-2-methyl-4-nitro-5-phenylpyrrolidine-2-carboxamido]butanoic acid] |
| 136 to 138 | CC[C@H](C)C(OCc1ccccc1F)[C@H]1[C@H]([N+](=O)[O-])[C@H](c2ccccc2)N[C@@H]1C(=O)NCCC(=O)O (stereo partly drawn) [Compound 3, 3-[(2S,3R,4S,5S)-3-[(2S)-1-(2-Fluorobenzyloxy)-2-methylbutyl]-4-nitro-5-phenylpyrrolidine-2-carboxamido]propanoic acid] |
| 145 to 146 | CC[C@H](C)C(OCc1ccccc1)[C@H]1[C@H]([N+](=O)[O-])[C@H](c2ccsc2)N[C@@H]1C(=O)NCCC(=O)O (stereo partly drawn) [Compound 5, 3-[(2S,3R,4S,5S)-3-[(2S)-1-(Benzyloxy)-2-methylbutyl]-4-nitro-5-(thiophen-3-yl)pyrrolidine-2-carboxamido]propanoic acid] |
| 140 to 141 | CC[C@H](C)C(OCc1ccccc1)[C@H]1[C@H]([N+](=O)[O-])[C@H](c2ccccc2)N[C@@H]1C(=O)NCCC(=O)O (stereo partly drawn) [Compound 1, 3-[(2S,3R,4S,5S)-3-[(2S)-1-(Benzyloxy)-2-methylbutyl]-4-nitro-5-phenylpyrrolidine-2-carboxamido]propanoic acid] |
| 98 to 100 | CC(C)C(OCc1ccccc1)[C@H]1[C@H]([N+](=O)[O-])[C@H](c2cccnc2)N[C@@H]1C(=O)NCCC(=O)O (stereo partly drawn) [Compound 8, 3-[(2S,3R,4S,5S)-3-(1-(Benzyloxy)-2-methylpropyl)-4-nitro-5-(pyridin-3-yl)pyrrolidine-2-carboxamido]propanoic acid] |
